# Source: ChEMBL document CHEMBL1811844, “Design, synthesis, and biological evaluation of triazolo-pyrimidine derivatives as novel inhibitors of hepatitis B virus surface antigen (HBsAg) secretion” (J Med Chem, 2011)
# Experiment: Cytotoxicity against human HepG2(2.2.15) cells by MTT assay
# Assay type: cell-based
smiles,measurement,value
Cc1ccc(C2=CC(c3c(F)cccc3Cl)n3ncnc3N2)cc1C (stereo unspecified),CC50,> 50 µM
